Experimental findings from BindingDB's records for patent US10738053 (Hoffmann-La Roche, 2020) are described below.

The IC50 is the concentration needed to halve the response being measured. Low values mean greater potency, high ones weaker potency.

The target in this assay is Autotaxin (Homo sapiens, UniProt Q13822). As to the kind of experiment: Enzyme Inhibition Assay. As to the method:
Then, 15 μL of 41.7 nM ATX solution was added (30 nM final concentration), mixed five times and then incubated for 15 minutes at 30° C. 10 μL of MR121 substrate solution was added (1 μM final concentration), mixed 30 times and then incubated for 15 minutes at 30° C.

`NS(=O)(=O)c1ccc(C(=O)N2C[C@H]3CN(C(=O)COc4ccc(OC(F)(F)F)cc4)C[C@]3(F)C2)c(F)c1` (relative stereo) [US10738053, Example 3.01] yielded a half-maximal inhibitory concentration (IC50) of 7 nM.
